Results on two compounds are retold here after patent US20260021061A1, “ARIADNE AND ANALOGS FOR THE TREATMENT OF NEUROLOGICAL AND NEUROMUSCLAR DISORDERS” (priority 2022, published 2026).

One test addresses T1, Monoamine Oxidase MAO-A (Homo sapiens, UniProt P21397).
T1 construct: Eurofins-Panlabs (contract screen) 140010
Put plainly: SafetyScreen44 140010. The following applies: 10 μM; Kynuramine; recombinant. The test is classed as biochemical. The protocol: (§1) A broad screen of 44 molecular targets (SafetyScreen44, Eurofins-Panlabs) for Ariadne were performed, which includes G protein-coupled receptors, steroid nuclear receptors, ion channels, neurotransmitter transporters, and metabolic and signaling enzymes. Only two molecular targets, 5-HT2A and 5-HT2B receptors, emerged above the positive hit threshold, defined as 50% displacement of standard radioligands by 10 uM concentration of Ariadne (FIG. 1b, and Table 1).
(§2) For species, “H”=human, “R”=rat. Test compound screened at all targets at concentration of 10 μM.

Test [1] deals with T2, Protein Tyrosine Kinase, LCK (Homo sapiens, UniProt P06239).
T2 construct: Eurofins-Panlabs (contract screen) 176020
Description: SafetyScreen44 176020. The test is classed as biochemical. The following applies: 10 μM; Poly(Glu:Tyr); recombinant. The protocol: as §1, §2

A further test addresses T3, Adenosine A2A (Homo sapiens, UniProt P29274).
T3 construct: Eurofins-Panlabs (contract screen) 200610
Put plainly: SafetyScreen44 200610. In kind it is binding. The following applies: 10 μM; [3H]CGS-21680; recombinant. The protocol:
as §1, §2

Another test has as its target T4, Adrenergic alpha2A (Homo sapiens, UniProt P08913).
T4 construct: Eurofins-Panlabs (contract screen) 203630
Description: SafetyScreen44 203630. The following applies: 10 μM; [3H]Rauwolscine; recombinant. In kind it is binding. The protocol: as §1, §2

The target of a further test is T5, Adrenergic β1 (Homo sapiens, UniProt P08588).
T5 construct: Eurofins-Panlabs (contract screen) 204010
Put plainly: SafetyScreen44 204010. The test is classed as binding. The following applies: 10 μM; [125I]Cyanopindolol; recombinant. The protocol: as §1, §2

The target of another test is T6, Histamine H2 (Homo sapiens, UniProt P25021).
T6 construct: purchased Eurofins-Panlabs (contract screen SafetyScreen44) assay ID 239710
Description: SafetyScreen44 239710. The settings on record: 10 μM; [125I]Aminopotentidine; recombinant. In kind it is binding. The protocol: as §1, §2

In a further test the target is T7, Muscarinic M1 (Homo sapiens, UniProt P11229).
T7 construct: purchased Eurofins-Panlabs (contract screen SafetyScreen44) assay ID 252610
Description: SafetyScreen44 252610. The test is classed as binding. The settings on record: 10 μM; [3H]N-Methylscopolamine; recombinant. The protocol:
as §1, §2

Another test addresses T8, Opiate kappa (OP2, KOP) (Homo sapiens, UniProt P41145).
T8 construct: purchased Eurofins-Panlabs (contract screen SafetyScreen44) assay ID 260210
Description: SafetyScreen44 260210. In kind it is binding. The following applies: 10 μM; [3H]Diprenorphine; recombinant. The protocol:
as §1, §2

Another test deals with Potassium Channel [KA]. Put plainly: SafetyScreen44 265510. In kind it is binding, rat. The settings on record: 10 μM; [125I]alpha-Dendrotoxin; cerebral cortex. The protocol: as §1, §2
Test [2] has as its system rats. The settings on record: rat, in vivo; cited from earlier work.
The next test addresses 5-HT2A (Homo sapiens, UniProt P28223). Put plainly: Calcium flux assay. In kind it is cell-based.
The next test deals with T9, 5-HT2C receptor (Homo sapiens, UniProt P28335).
T9 sequence (P28335 33-458): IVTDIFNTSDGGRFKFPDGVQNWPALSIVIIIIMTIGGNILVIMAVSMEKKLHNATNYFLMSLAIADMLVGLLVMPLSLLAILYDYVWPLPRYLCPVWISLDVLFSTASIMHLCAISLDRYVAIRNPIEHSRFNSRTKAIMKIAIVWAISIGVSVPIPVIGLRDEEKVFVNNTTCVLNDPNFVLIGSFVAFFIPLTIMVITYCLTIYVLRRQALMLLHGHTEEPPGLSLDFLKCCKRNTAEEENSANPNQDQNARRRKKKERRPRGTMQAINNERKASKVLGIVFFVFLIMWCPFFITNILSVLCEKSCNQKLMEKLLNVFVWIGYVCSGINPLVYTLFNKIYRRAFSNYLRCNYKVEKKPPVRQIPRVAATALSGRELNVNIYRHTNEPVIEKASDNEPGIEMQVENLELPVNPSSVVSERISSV
Put plainly: Calcium flux assay. The test is classed as cell-based. The settings on record: read-out: Emax relative to 5-HT, calcium flux.

Test [3] relates to auxilin knockout (KO) mice. Description: Hind limb clasping in auxilin KO mouse model of Parkinson's Disease. The test is classed as in vivo. The settings on record: Aux-KO mice; 10 mg/kg intraperitoneal; 15 to 30 minutes after treatment. An excerpt: R-Ariadne ameliorates motor abnormalities in a mouse model of Parkinson's Disease. In the 1978 patent from the Bristol Laboratories, the inventors noted complete remission of Parkinson's symptoms in two patients (Partyka el al., U.S. Pat. No. 4,105,695, 1978). To address and examine these claims via reverse translation in mice, we used a novel model of PD based on auxilin knockout (KO) mice (Vidyadhara et al., 2022). Auxilin is a clathrin uncoating protein that participates in clathrin mediated endocytosis of synaptic vesicles (SV), enabling SV recycling and neurotransmission (Vidyadhara et al., 2022). Loss-of-function mutations in auxilin (DNAJC6/PARK19) cause PD. Auxilin KO mice display cardinal features of PD such as progressive motor deficits, nigral dopaminergic neuronal loss, α-synuclein pathology, and neuroinflammation. 9-12 month old Aux-KO mice were previously shown to respond to L-DOPA treatment, which ameliorated PD-like motor abnormalities (Vidyadhara et al., 2022). […] The balance beam test evaluates fine motor skills such as ability to walk on a raised narrow beam to reach a safety box, measured as a number of runs/minute and time taken to cross the beam (FIGS. 9-10). […]

The subject of test [4] is rats. The following applies: 10 mg/kg, s.c. or i.p.; absence of stimulant-like effects; cited from earlier work.
Another test deals with 5-HT1F receptor (Homo sapiens, UniProt P30939). Description: 5-HTome G protein activation BRET assay.

A value given as a limit tells only on which side of the number the result lay.

Sequence of 5-HT2A (P28223 whole entry): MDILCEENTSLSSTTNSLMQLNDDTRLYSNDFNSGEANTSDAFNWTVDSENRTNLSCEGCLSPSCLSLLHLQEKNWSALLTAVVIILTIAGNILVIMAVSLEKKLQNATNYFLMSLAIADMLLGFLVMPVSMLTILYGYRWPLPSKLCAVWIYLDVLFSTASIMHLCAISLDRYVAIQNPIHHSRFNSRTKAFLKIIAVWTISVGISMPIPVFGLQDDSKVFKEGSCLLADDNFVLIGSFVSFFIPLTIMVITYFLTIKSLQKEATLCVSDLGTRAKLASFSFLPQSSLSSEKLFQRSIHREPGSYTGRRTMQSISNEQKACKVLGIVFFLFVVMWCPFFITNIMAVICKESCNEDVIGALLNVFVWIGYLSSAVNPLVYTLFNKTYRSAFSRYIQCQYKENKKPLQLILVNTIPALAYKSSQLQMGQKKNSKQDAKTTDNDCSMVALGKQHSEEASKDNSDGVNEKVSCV
Sequence of 5-HT1F receptor (P30939 whole entry): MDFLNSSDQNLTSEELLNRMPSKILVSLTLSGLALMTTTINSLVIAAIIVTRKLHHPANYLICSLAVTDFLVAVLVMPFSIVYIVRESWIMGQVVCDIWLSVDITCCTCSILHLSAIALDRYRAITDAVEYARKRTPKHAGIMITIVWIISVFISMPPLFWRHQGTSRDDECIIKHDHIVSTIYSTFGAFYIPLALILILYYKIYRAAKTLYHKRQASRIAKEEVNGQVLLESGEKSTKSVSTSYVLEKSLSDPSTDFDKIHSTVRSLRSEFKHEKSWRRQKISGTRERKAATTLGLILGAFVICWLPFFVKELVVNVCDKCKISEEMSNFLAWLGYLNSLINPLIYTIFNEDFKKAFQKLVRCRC
T1 sequence (P21397 whole entry): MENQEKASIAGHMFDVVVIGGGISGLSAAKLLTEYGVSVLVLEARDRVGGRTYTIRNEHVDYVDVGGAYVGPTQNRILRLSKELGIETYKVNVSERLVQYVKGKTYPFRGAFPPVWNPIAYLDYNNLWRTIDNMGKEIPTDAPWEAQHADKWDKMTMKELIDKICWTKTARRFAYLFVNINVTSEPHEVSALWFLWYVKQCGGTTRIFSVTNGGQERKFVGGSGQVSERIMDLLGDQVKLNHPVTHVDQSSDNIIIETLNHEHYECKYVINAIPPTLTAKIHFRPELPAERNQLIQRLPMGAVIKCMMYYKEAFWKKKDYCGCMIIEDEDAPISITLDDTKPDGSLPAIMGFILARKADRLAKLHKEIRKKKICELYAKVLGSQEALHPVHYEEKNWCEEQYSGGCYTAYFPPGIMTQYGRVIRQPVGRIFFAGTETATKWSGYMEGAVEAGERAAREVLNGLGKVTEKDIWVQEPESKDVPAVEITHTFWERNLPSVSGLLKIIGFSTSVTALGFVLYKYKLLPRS
T3 sequence (P29274 whole entry): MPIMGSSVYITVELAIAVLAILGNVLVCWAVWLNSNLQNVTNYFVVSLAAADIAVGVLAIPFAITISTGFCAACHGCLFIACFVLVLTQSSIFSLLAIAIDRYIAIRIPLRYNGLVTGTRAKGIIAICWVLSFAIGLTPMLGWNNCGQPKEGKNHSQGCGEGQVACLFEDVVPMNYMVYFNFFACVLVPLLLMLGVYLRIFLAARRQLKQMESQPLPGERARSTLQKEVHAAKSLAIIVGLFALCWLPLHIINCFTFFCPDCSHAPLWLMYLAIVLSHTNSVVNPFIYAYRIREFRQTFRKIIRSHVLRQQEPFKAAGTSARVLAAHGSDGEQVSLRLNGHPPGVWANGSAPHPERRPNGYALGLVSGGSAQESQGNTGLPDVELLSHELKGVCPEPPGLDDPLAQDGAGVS
T2 sequence (P06239 whole entry): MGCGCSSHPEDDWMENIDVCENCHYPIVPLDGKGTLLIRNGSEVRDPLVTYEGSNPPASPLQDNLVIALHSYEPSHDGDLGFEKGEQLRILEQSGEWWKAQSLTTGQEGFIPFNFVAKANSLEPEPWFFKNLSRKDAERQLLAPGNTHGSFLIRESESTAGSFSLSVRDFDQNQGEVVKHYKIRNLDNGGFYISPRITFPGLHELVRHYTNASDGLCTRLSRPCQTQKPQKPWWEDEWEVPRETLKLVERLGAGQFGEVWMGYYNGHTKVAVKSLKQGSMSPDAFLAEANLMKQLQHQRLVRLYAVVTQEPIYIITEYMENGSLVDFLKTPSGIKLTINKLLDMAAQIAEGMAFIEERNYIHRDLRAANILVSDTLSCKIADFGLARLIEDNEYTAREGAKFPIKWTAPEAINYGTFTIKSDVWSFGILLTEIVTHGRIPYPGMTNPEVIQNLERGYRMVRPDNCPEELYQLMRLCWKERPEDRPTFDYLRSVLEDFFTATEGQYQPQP
T8 sequence (P41145 whole entry): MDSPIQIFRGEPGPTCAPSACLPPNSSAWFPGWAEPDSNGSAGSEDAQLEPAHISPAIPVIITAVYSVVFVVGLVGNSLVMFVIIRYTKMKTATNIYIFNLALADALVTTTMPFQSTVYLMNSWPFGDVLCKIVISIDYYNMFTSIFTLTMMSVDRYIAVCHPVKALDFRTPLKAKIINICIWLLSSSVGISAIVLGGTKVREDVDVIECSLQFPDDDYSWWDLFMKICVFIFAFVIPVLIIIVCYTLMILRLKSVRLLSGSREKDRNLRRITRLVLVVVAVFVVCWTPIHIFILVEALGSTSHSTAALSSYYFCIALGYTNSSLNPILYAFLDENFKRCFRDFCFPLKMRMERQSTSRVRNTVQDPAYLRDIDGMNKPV
T5 sequence (P08588 whole entry): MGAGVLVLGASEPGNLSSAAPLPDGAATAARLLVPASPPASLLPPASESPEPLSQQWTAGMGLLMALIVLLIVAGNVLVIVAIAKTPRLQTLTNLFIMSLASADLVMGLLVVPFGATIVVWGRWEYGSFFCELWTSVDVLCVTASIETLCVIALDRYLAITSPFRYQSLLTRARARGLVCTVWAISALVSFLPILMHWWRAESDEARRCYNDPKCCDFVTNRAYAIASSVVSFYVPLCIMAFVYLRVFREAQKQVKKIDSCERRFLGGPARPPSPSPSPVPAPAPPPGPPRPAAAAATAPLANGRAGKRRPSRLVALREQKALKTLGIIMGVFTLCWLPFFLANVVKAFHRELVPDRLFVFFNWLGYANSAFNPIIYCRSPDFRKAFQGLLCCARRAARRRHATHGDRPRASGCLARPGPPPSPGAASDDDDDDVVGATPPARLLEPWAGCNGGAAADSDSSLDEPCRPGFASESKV
T7 sequence (P11229 whole entry): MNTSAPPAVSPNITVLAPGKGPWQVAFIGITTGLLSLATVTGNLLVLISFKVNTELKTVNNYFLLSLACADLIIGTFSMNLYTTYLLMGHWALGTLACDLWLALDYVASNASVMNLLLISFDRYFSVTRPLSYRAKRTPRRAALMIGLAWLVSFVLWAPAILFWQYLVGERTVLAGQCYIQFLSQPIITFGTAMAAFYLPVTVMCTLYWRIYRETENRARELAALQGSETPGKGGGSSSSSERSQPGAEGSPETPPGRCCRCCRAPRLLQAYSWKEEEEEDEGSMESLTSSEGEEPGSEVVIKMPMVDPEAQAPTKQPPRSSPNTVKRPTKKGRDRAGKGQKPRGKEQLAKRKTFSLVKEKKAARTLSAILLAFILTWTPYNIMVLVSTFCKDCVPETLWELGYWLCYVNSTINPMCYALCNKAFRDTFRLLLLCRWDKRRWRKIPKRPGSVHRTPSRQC
T4 sequence (P08913 whole entry): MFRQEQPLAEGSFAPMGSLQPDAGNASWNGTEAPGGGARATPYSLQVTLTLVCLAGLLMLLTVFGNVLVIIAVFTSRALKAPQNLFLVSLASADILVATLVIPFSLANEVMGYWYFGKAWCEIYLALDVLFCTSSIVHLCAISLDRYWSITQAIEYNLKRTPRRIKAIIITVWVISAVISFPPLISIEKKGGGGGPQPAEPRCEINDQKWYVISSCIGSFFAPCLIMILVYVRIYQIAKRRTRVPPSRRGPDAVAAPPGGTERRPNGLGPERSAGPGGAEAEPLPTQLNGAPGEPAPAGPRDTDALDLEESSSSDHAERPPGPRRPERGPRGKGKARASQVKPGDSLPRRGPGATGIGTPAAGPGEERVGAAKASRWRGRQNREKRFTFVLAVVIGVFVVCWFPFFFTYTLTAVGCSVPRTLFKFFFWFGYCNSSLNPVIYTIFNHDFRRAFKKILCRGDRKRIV
T6 sequence (P25021 whole entry): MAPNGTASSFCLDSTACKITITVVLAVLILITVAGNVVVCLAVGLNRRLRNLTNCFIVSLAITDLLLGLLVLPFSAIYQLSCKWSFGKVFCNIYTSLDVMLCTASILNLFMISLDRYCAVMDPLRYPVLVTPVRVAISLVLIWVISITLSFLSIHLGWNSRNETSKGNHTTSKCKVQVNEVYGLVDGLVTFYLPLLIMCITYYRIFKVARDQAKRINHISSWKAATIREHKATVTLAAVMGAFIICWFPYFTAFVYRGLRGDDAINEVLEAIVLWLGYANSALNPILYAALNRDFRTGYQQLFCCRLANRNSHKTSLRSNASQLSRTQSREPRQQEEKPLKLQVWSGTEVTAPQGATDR
Description for 5-HT1F receptor: All BRET assays were conducted using BRET2 in HEK293T cells (ATCC CRL-11268; mycoplasma-free), which were subcultured in high-glucose DMEM (VWR) supplemented with 10% FBS (Life Technologies).
Constructs in G protein-dissociation BRET assays were derived from the codon-optimized Tango pcDNA3.1 library (Addgene) with V2tail/TEV/tTA encoding regions deleted to yield “de-Tango” constructs. […] All Gα-Rluc8, Beta, and GFP2-γ constructs were derived from the TRUPATH pcDNA5/FRT/TO library (Addgene). […]
On the day of the assay, plates were decanted and 20 uL of drug buffer per well (1×HBSS, 20 mM HEPES, pH 7.4) was added using a Multidrop (ThermoFisher Scientific), and plates were allowed to equilibrate at 37° C. in a humidified incubator before receiving drug stimulation. […] Before reading, addition of coelenterazine 400a (5 uM final concentration; Nanolight Technology) was performed by the [sequence]. Immediately after, plates were read at 400 nm Rluc and fluorescent GFP2 emission at 510 nm for BRET2 at 0.8 second per well using a PheraStarFSX (BMB Lab Tech).
The BRET ratios of 510/400 luminescence were calculated per well and were plotted as a function of drug concentration using Graphpad Prism 5 or 9 (Graphpad Software Inc., San Diego, CA). […]
Description for 5-HT2A: (§3) Therefore, an orthogonal assay measuring calcium flux was also performed for the 5-HT2 receptors (Klein et al., 2020).
Description for 5-HT2C receptor: as §3

For `CCC(N)Cc1cc(OC)c(C)cc1OC` (racemic) [Compound 32, 1-(2,5-dimethoxy-4-methylphenyl)butan-2-amine], the “% Response” value was −3% on Monoamine Oxidase MAO-A; 13% in [1]; 10% at Adenosine A2A; 34% at Adrenergic alpha2A; 17% at Adrenergic β1; 21% at Histamine H2. The “% Response” value at Muscarinic M1 is given as −4%; at Opiate kappa (OP2, KOP), 3%; in the test on Potassium Channel [KA], −6%. The “substitution for MDMA stimulus” value in the test with rats [2] is recorded as “full substitution”. In addition, in the test on rats [2], the “substitution in LSD trained animals” value is on record as “substituted responding”.
Turning to `CC[C@@H](N)Cc1cc(OC)c(C)cc1OC` [(R)-Ariadne], the results for the half-maximal effective concentration (EC50) at 5-HT2A and on 5-HT1F receptor were 30 nM and roughly 5000 nM, respectively. The Emax at 5-HT2A (read-out: Emax relative to 5-HT, calcium flux) was 96%; on 5-HT2C receptor, 60%; on 5-HT1F receptor it was greater than 70%. Further, the clasping duration entry in test [3] is listed as “down to zero”. The hindlimb clasping score result in test [3] was “down to zero”. In addition, the avoidance behavior entry with rats [4] was “improved avoidance behavior”.
